Here are results for 5 molecules from publication PMC8839375, “Alpha-Glucosidase Inhibition and Molecular Docking of Isolated Compounds from Traditional Thai Medicinal Plant, Neuropeltis racemosa Wall” (Molecules, 2022).

Assay [1] addresses T1, alpha-glucosidase (Saccharomyces cerevisiae, UniProt P53341). The assay can be described thus: enzyme kinetic study (Lineweaver-Burk and secondary plots). The conditions noted are these: for inhibition type: Lineweaver-Burk plot; for Ki′: inhibition constant when inhibitor bound with enzyme-substrate complex, secondary plot. In kind it is biochemical. How it is done:
The double reciprocal Lineweaver–Burk plot was used to determine the mode of inhibition, while the secondary plots conducted the inhibition constants. […] Briefly, the enzyme inhibition procedure was performed as mention above. The 6 concentrations of pNPG (5–0.1 mM), the fixed enzyme concentration (1 unit/mL), and the 3 concentrations of each effective sample were evaluated for the manner of inhibition.

For assay [2], the target named is T1, alpha-glucosidase. The conditions noted are these: cited from earlier work; for IC50: ref 13.
Another assay relates to alpha-amylase. On the set-up: method as in PMID 31185767. The conditions noted are these: ref 15; cited from earlier work.

Structures are written as SMILES. Like-named read-outs stand apart in the source and are kept apart here. Marks after values point to notes of the source that are not given here.

T1 sequence (P53341 whole entry): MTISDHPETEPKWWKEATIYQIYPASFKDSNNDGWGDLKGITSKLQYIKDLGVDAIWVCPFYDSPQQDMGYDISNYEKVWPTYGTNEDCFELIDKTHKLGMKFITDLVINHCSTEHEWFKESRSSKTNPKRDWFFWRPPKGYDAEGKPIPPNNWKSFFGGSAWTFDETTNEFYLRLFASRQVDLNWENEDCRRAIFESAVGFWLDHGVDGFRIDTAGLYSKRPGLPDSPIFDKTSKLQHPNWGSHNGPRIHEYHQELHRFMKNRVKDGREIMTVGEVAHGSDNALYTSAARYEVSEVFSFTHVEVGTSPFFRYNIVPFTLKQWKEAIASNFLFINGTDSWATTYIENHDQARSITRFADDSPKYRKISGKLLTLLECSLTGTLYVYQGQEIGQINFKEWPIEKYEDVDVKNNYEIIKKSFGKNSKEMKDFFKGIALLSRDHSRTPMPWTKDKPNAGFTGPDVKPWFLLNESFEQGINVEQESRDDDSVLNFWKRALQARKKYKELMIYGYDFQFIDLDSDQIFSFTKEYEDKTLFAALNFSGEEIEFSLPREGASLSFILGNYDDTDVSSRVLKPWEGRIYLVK

As usually defined, the IC50 is the midpoint of a concentration-inhibition curve. For the molecule `COc1cc(/C=C/C(=O)NCCc2ccc(O)cc2)ccc1O` [Compound 4, N-trans-feruloyltyramine], the “inhibition type” value is given as “Uncompetitive” against alpha-glucosidase [1]; “uncompetitive” on alpha-glucosidase [2] (ref 11, 13); “non-competitive” at alpha-glucosidase [2] (ref 12). Further, the “Ki′” value at alpha-glucosidase [1] is on record as 51.81 µM; on alpha-glucosidase [1] (listed as N-trans-feruloyltyramine (4)), 51.81 ^c µM. The IC50 on alpha-glucosidase [2] is 3.58 µM.

As for `C[C@H]1O[C@H](O[C@H]2[C@H](O)[C@@H](O)[C@@H](O[C@H]3[C@H](O)[C@@H](O)C(O)O[C@@H]3CO)O[C@@H]2CO)[C@H](O)[C@@H](O)[C@@H]1N[C@H]1C=C(CO)[C@@H](O)[C@H](O)[C@H]1O` (stereo partly drawn) [Acarbose, acarbose, reference compound], the “inhibition type” value at alpha-glucosidase [1] is “Competitive”.

`COc1cc2ccc(=O)oc2cc1O` [Compound 1, scopoletin]: the results for the “inhibition type” value on alpha-glucosidase [1], against alpha-glucosidase [1] (listed as Scopoletin (1)) and at alpha-glucosidase [2] (ref 20) were “mixed-type”, “Mixed” and “competitive”, respectively. The alpha-amylase inhibitory activity entry in the assay on alpha-amylase was “potent inhibitory activity”.

For the molecule `COc1cc(C(=O)O)cc(OC)c1O` [Compound 2, syringic acid], the inhibition type result at alpha-glucosidase [2] (ref 9) was “either in a competitive or an uncompetitive manner”.

With `O=C(/C=C/c1ccc(O)cc1)NCCc1ccc(O)cc1` [Compound 5, N-trans-coumaroyltyramine], the “inhibition type” value on alpha-glucosidase [1] was “Uncompetitive”; on alpha-glucosidase [2] (ref 11, 13), “uncompetitive”; on alpha-glucosidase [2] (ref 12), “non-competitive”. Also, the “Ki′” value on alpha-glucosidase [1] is listed as 1.99 µM; on alpha-glucosidase [1] (listed as N-trans-coumaroyltyramine (5)), 1.99 ^c µM. In addition, on alpha-glucosidase [2], the IC50 is 0.58 µM.
